According to ChEMBL document CHEMBL1201862, “PubChem BioAssay data set” (2004):
Where a name gives a salt, the structure may show the parent alone. The source made the active and inactive calls.

Columns and labels:
[1] = OVCAR-3 cell viability loss – plate reader, dry powder samples, PAX8 inhibitor project, dose response (AID 743044); format: functional, cell-based
[2] = OVCAR8 cell viability loss – plate reader, dry powder samples, PAX8 project, dose response (AID 743197); format: functional, cell-based; details: OVCAR-8
[3] = biological target: Paired box protein Pax-8 (Homo sapiens, UniProt Q06710); assay: PAX8 transcriptional activity inhibition in RMG-I – RMG-I cells, luciferase, cherry-pick, dose response (AID 687027); format: functional, cell-based;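 further: luciferase reporter driven by Pax8 target thyroperoxidase promoter measured by SteadyGlo luminescence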
Sequence of Paired box protein Pax-8 (Q06710 whole entry): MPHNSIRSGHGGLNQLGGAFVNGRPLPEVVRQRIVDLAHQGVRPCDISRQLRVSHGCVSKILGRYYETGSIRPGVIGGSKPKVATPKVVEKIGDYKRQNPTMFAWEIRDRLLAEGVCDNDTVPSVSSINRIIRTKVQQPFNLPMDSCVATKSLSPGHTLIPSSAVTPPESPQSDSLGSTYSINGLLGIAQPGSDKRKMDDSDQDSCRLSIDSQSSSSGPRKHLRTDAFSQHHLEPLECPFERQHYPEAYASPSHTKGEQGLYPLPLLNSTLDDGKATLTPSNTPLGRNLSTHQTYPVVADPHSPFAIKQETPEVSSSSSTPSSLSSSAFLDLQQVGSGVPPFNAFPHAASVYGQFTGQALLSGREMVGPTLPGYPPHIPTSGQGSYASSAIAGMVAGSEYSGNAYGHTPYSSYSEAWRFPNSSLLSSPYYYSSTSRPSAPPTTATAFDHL

[4] = A2780 cell killing – plate reader, dry powder samples, cytotoxicity control, dose response (AID 743046); format: functional, cell-based
[5] = toxicity toward immortalized ovarian surface epithelium – cell-based, plate reader, dry powder samples, cytotoxicity control for PAX8 inhibitor project, dose response (AID 743045); format: functional
[6] = IGROV1 cell killing – plate reader, dry powder samples, PAX8 inhibitor project, dose response (AID 743043); format: functional, cell-based; details: IGROV-1
[7] = toxicity to human hepatoma HepG2 cells – cell-based, cherry-picked samples, cytotoxicity control, dose response (AID 1159577); format: functional
[8] = P. falciparum Dd2 growth inhibitors, dose response, SYBR Green, cherry-picked samples (AID 1159567); format: functional, cell-based
[9] = IC50 of Artemis nuclease activity blockers – biochemical, fluorescence intensity, dose response (AID 720701); format: functional;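 further: Artemis endonuclease enzyme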
[10] = biological target: T1, RNA-editing ligase 1, mitochondrial (Trypanosoma brucei brucei, UniProt P86926); assay: inhibition of trypanosome RNA editing ligase – biochemical, fluorescence, Trypanosoma brucei, dose response (AID 1117295); format: functional
T1 sequence (P86926 whole entry): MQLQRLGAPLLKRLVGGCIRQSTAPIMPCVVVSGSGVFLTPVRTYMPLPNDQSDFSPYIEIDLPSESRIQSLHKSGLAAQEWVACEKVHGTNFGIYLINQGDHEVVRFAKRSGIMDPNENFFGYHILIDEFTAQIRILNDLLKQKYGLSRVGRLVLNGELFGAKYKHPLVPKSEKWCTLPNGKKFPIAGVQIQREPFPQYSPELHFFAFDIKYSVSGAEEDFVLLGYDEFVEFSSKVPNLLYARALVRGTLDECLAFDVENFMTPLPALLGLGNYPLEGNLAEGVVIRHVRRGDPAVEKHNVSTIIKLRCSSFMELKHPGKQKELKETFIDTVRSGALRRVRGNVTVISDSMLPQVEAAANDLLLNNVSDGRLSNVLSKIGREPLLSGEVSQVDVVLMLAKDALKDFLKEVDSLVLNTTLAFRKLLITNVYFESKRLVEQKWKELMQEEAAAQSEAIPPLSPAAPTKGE

[11] = IC50 of insulin release inhibition, rat insulinoma INS-1E line, 5 mM glucose, cell-based (AID 1117331); format: functional
[12] = cells; format: functional, cell-based; details: INS-1E
[13] = rise of 4N DNA cells, HeLa – IC50, dose response (AID 1117351); format: functional, cell-based
[14] = rise of 2N DNA cells, HeLa – IC50, dose response (AID 1117349); format: functional, cell-based
[15] = biological target: T2, Cytochrome P450 1A2 (Homo sapiens, UniProt P05177);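 further: PubChem cytochrome P450 panel assay, CYP1A2 panel member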
T2 sequence (P05177 whole entry): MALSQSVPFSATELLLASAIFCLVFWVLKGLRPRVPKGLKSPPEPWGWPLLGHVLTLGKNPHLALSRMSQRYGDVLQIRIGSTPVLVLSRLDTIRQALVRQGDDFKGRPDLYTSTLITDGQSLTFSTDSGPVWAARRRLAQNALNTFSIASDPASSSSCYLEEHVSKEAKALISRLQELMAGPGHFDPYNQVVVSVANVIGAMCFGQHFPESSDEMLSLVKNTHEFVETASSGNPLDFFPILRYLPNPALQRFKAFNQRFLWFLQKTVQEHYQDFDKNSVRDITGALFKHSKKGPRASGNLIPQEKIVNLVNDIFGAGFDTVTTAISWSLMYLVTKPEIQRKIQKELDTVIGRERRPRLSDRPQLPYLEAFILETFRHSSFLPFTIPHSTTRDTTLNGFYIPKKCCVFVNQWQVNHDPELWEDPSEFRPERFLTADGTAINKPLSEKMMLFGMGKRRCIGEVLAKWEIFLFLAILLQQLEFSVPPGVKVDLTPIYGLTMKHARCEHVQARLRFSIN

Q: With `C[C@@H]1CCCCO[C@H](CN(C)C(=O)C2CCCCC2)[C@H](C)CN([C@@H](C)CO)C(=O)c2cc(NS(=O)(=O)c3ccc(Cl)cc3)ccc2O1` as the molecule, how does the AC50 [1] read?
A: 45.3 µM (active)

Q: And the AC50 [2]?
A: 56.9 µM (active)

Q: And the AC50 [3]?
A: 10.8 µM (active)

Q: What about the AC50 [4] of the same molecule?
A: 43.4 µM (active)

Q: What does the source list for `O=C(Nc1ccc(F)cc1)N1CCCCN2[C@@H](CO)[C@@H](c3ccc(C#Cc4ccccc4)cc3)[C@@H]2C1`?
A: AC50 [1]: 19.2 µM (active); AC50 [5]: 55.1 µM (active); AC50 [6]: 21 µM (active); AC50 [7]: 7.97 µM (active); AC50 [3]: 18.7 µM (active); AC50 [8]: 2.61 µM (active)

Q: With `O=[N+]([O-])c1ccccc1/C=C/C=N/n1c(S)nnc1-c1ccc(Cl)cc1` as the molecule, how does the IC50 [9] read?
A: > 20 µM (inactive)

Q: What does the source list for `CN(C)CC(=O)N1C[C@@H]2N[C@H](C1)[C@H]2c1ccc(/C=C/c2ccccc2)cc1`?
A: AC50 [7]: 11.4 µM (active); AC50 [8]: 2.63 µM (active)

Q: For `COC(=O)C1=C(C)N(Cc2ccc(C(F)(F)F)cc2)C(NCc2ccccc2C(F)(F)F)=NC1c1ccccc1C(F)(F)F` (stereo unspecified), which IC50 [10] is on record?
A: > 96.6 µM (inactive)

Q: Which IC50 [10] does the source give for `COC(=O)C1=C(C)N(Cc2ccc(C(F)(F)F)cc2)C(NCc2ccccc2C(F)(F)F)=NC1c1ccccc1` (stereo unspecified) here?
A: > 96.6 µM (inactive)

Q: Which AC50 [7] does the source give for `COCC(=O)N1CCC2(CC1)CN(Cc1ccccc1F)[C@H](CO)c1[nH]c3cc(OC)ccc3c12` here?
A: > 39 µM (inactive)

Q: And the AC50 [8]?
A: 7.02 µM (active)

Q: For `CN(C)CCC=C1c2ccccc2CCc2ccccc21` [AMITRIPTYLINE HYDROCHLORIDE], which IC50 [11] is on record?
A: 3 µM (active)

Q: What about the IC50 [12] of the same molecule?
A: > 33.3 µM (inactive)

Q: What about the IC50 [13] of the same molecule?
A: > 10 µM (inactive)

Q: What about the IC50 [14] of the same molecule?
A: > 10 µM (inactive)

Q: Which results are given for `CN(C)CCN(Cc1ccc(Cl)cc1)c1ccccn1` [CHLOROPYRAMINE]?
A: AC50 [15]: 12.6 µM (inconclusive); IC50 [11]: 6.14 µM (inactive); IC50 [12]: 16.8 µM (inactive)

Q: For `CCCCN1CCCC[C@H]1C(=O)Nc1c(C)cccc1C` [LEVOBUPIVACAINE HYDROCHLORIDE], which IC50 [11] is on record?
A: 27.2 µM (inactive)

Q: And the IC50 [12]?
A: > 33.3 µM (inactive)
